# Source: PubChem BioAssay AID248 (DTP/NCI, 2004)
# Inconclusive results and toxic doses are left out.
# System: L1210 leukemia ip in BDF1 mice, survival T/C
# Assay: NCI In Vivo Anticancer Drug Screen. Data for tumor model L1210 Leukemia (intraperitoneal) in B6D2F1 (BDF1) mice
# Conditions: endpoint: mean survival time, higher = longer survival
# Outline: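 Transplanted-tumor mice were given test agent; controls received vehicle only. Survival readings from the two groups were divided (treated over control).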
# [1] = dose: 100.0 mg/kg/injection, schedule: Q01DX001 (ip), vehicle: carboxymethylcellulose (CMC)
# [2] = dose: 200.0 mg/kg/injection, schedule: Q01DX001 (ip), vehicle: carboxymethylcellulose (CMC)
# [3] = dose: 400.0 mg/kg/injection, schedule: Q01DX001 (ip), vehicle: carboxymethylcellulose (CMC)
# [4] = dose: 100.0 mg/kg/injection, schedule: Q04DX003 (ip), vehicle: Klucel (hydroxypropylcellulose) (HPC)
# [5] = dose: 200.0 mg/kg/injection, schedule: Q04DX003 (ip), vehicle: Klucel (hydroxypropylcellulose) (HPC)
# [6] = dose: 100.0 mg/kg/injection, schedule: Q01DX009 (ip), vehicle: saline with Tween-80
# [7] = dose: 100.0 mg/kg/injection, schedule: Q04DX003 (ip), vehicle: saline with Tween-80
smiles,measurement,setting,value
O=c1ccn(O)cc1,T/C,"dose: 100.0 mg/kg/injection, schedule: Q04DX002 (ip), vehicle: other",96 % of control
same,T/C,"dose: 200.0 mg/kg/injection, schedule: Q04DX002 (ip), vehicle: other",100 % of control
same,T/C,"dose: 400.0 mg/kg/injection, schedule: Q04DX002 (ip), vehicle: other",88 % of control
C(/C=C/C=C/N1CCCCC1)=[N+]1CCCCC1,T/C,"dose: 0.39 mg/kg/injection, schedule: Q04DX003 (ip), vehicle: saline",112 % of control
same,T/C,"dose: 0.78 mg/kg/injection, schedule: Q04DX003 (ip), vehicle: saline",93 % of control
same,T/C,"dose: 1.56 mg/kg/injection, schedule: Q04DX003 (ip), vehicle: saline",105 % of control
CCOC(=O)CC(O)(c1ccc(OC)cc1)c1ccc(OC)cc1,T/C,[1],92 % of control
same,T/C,[2],97 % of control
same,T/C,[3],95 % of control
O=C1c2ccccc2C(=O)c2c(Nc3ccccc3)ccc(O)c21,T/C,[4],97 % of control
same,T/C,[5],98 % of control
C[N+](C)(C)c1ncnc2nc[nH]c12,T/C,"dose: 22.5 mg/kg/injection, schedule: Q01DX Z (ip), vehicle: saline",112 % of control
same,T/C,"dose: 31.0 mg/kg/injection, schedule: Q01DX005 (ip), vehicle: saline",112 % of control
same,T/C,"dose: 31.0 mg/kg/injection, schedule: Q01DX009 (ip), vehicle: saline",120 % of control
same,T/C,"dose: 45.0 mg/kg/injection, schedule: Q01DX Z (ip), vehicle: saline",110 % of control
same,T/C,"dose: 53.0 mg/kg/injection, schedule: Q01DX Z (ip), vehicle: carboxymethylcellulose (CMC)",110 % of control
same,T/C,"dose: 62.0 mg/kg/injection, schedule: Q01DX005 (ip), vehicle: saline",110 % of control
same,T/C,"dose: 62.0 mg/kg/injection, schedule: Q01DX009 (oral), vehicle: saline",109 % of control
same,T/C,"dose: 62.0 mg/kg/injection, schedule: Q01DX009 (sc), vehicle: saline",109 % of control
same,T/C,"dose: 80.0 mg/kg/injection, schedule: Q01DX Z (ip), vehicle: carboxymethylcellulose (CMC)",118 % of control
same,T/C,"dose: 100.0 mg/kg/injection, schedule: Q## X008 (ip), vehicle: saline",110 % of control
same,T/C,"dose: 100.0 mg/kg/injection, schedule: Q## X024 (ip), vehicle: saline",115 % of control
same,T/C,"dose: 120.0 mg/kg/injection, schedule: Q01DX Z (ip), vehicle: carboxymethylcellulose (CMC)",118 % of control
same,T/C,"dose: 125.0 mg/kg/injection, schedule: Q01DX001 (ip), vehicle: saline",96 % of control
same,T/C,"dose: 125.0 mg/kg/injection, schedule: Q01DX001 (oral), vehicle: saline",116 % of control
same,T/C,"dose: 125.0 mg/kg/injection, schedule: Q01DX001 (sc), vehicle: saline",106 % of control
same,T/C,"dose: 125.0 mg/kg/injection, schedule: Q01DX005 (ip), vehicle: saline",124 % of control
same,T/C,"dose: 125.0 mg/kg/injection, schedule: Q01DX009 (sc), vehicle: saline",118 % of control
same,T/C,"dose: 125.0 mg/kg/injection, schedule: Q## X003 (ip), vehicle: saline",108 % of control
same,T/C,"dose: 180.0 mg/kg/injection, schedule: Q01DX Z (ip), vehicle: carboxymethylcellulose (CMC)",162 % of control
same,T/C,"dose: 200.0 mg/kg/injection, schedule: Q## X008 (ip), vehicle: saline",109 % of control
same,T/C,"dose: 250.0 mg/kg/injection, schedule: Q01DX001 (ip), vehicle: saline",107 % of control
same,T/C,"dose: 250.0 mg/kg/injection, schedule: Q01DX001 (oral), vehicle: saline",110 % of control
same,T/C,"dose: 250.0 mg/kg/injection, schedule: Q01DX001 (sc), vehicle: saline",109 % of control
same,T/C,"dose: 250.0 mg/kg/injection, schedule: Q01DX009 (sc), vehicle: saline",123 % of control
same,T/C,"dose: 250.0 mg/kg/injection, schedule: Q## X003 (ip), vehicle: saline",119 % of control
same,T/C,"dose: 270.0 mg/kg/injection, schedule: Q01DX015 (ip), vehicle: saline",152 % of control
same,T/C,"dose: 400.0 mg/kg/injection, schedule: Q## X008 (ip), vehicle: saline",120 % of control
same,T/C,"dose: 500.0 mg/kg/injection, schedule: Q01DX001 (oral), vehicle: saline",112 % of control
same,T/C,"dose: 800.0 mg/kg/injection, schedule: Q## X024 (ip), vehicle: saline",122 % of control
same,T/C,"dose: 1000.0 mg/kg/injection, schedule: Q01DX001 (oral), vehicle: saline",124 % of control
CCCCS(=O)(=O)N1CCCC(C)C1 (stereo not given),T/C,"dose: 100.0 mg/kg/injection, schedule: Q04DX002 (ip), vehicle: Klucel (hydroxypropylcellulose) (HPC)",100 % of control
same,T/C,"dose: 200.0 mg/kg/injection, schedule: Q04DX002 (ip), vehicle: Klucel (hydroxypropylcellulose) (HPC)",107 % of control
same,T/C,"dose: 400.0 mg/kg/injection, schedule: Q04DX002 (ip), vehicle: Klucel (hydroxypropylcellulose) (HPC)",103 % of control
NC(N)=N/N=C/c1ccc[nH]1,T/C,"dose: 15.0 mg/kg/injection, schedule: Q01DX Z (ip), vehicle: saline",94 % of control
same,T/C,"dose: 30.0 mg/kg/injection, schedule: Q01DX Z (ip), vehicle: saline",99 % of control
same,T/C,"dose: 60.0 mg/kg/injection, schedule: Q01DX Z (ip), vehicle: saline",96 % of control
same,T/C,"dose: 120.0 mg/kg/injection, schedule: Q01DX Z (ip), vehicle: saline",91 % of control
same,T/C,"dose: 120.0 mg/kg/injection, schedule: Q01DX Z (oral), vehicle: saline",105 % of control
same,T/C,"dose: 240.0 mg/kg/injection, schedule: Q01DX Z (ip), vehicle: saline",93 % of control
same,T/C,"dose: 240.0 mg/kg/injection, schedule: Q01DX Z (oral), vehicle: saline",106 % of control
same,T/C,"dose: 480.0 mg/kg/injection, schedule: Q01DX Z (ip), vehicle: saline",98 % of control
same,T/C,"dose: 480.0 mg/kg/injection, schedule: Q01DX Z (oral), vehicle: saline",103 % of control
same,T/C,"dose: 960.0 mg/kg/injection, schedule: Q01DX Z (oral), vehicle: saline",103 % of control
CC1=CC(=O)OC1=O (tested in a mixture with another compound),T/C,"dose: 37.5 mg/kg/injection, schedule: Q01DX009 (ip), vehicle: carboxymethylcellulose (CMC)",117 % of control
same,T/C,"dose: 75.0 mg/kg/injection, schedule: Q01DX001 (ip), vehicle: carboxymethylcellulose (CMC)",109 % of control
same,T/C,"dose: 150.0 mg/kg/injection, schedule: Q01DX001 (ip), vehicle: carboxymethylcellulose (CMC)",118 % of control
O=C(OCCCl)C1C2CCC(O2)C1C(=O)OCCCl (stereo not given),T/C,"dose: 1.56 mg/kg/injection, schedule: Q04DX002 (ip), vehicle: Klucel (hydroxypropylcellulose) (HPC)",103 % of control
CNCCOCc1ccccc1,T/C,"dose: 100.0 mg/kg/injection, schedule: Q01DX001 (ip), vehicle: saline",96 % of control
same,T/C,"dose: 200.0 mg/kg/injection, schedule: Q01DX001 (ip), vehicle: saline",91 % of control
OCC1(CO)COC2(CCCCC2)OC1,T/C,[4],89 % of control
same,T/C,[5],91 % of control
same,T/C,"dose: 400.0 mg/kg/injection, schedule: Q04DX003 (ip), vehicle: Klucel (hydroxypropylcellulose) (HPC)",91 % of control
N#CC1C(=O)c2ccccc2C1=O,T/C,"dose: 25.0 mg/kg/injection, schedule: Q01DX009 (ip), vehicle: saline with Tween-80",92 % of control
same,T/C,"dose: 50.0 mg/kg/injection, schedule: Q01DX009 (ip), vehicle: saline with Tween-80",91 % of control
same,T/C,[6],89 % of control
same,T/C,[7],94 % of control
Cn1c2ccccc2c2n[nH]c(=S)nc21,T/C,"dose: 100.0 mg/kg/injection, schedule: Q04DX002 (ip), vehicle: saline with Tween-80",104 % of control
same,T/C,"dose: 200.0 mg/kg/injection, schedule: Q04DX002 (ip), vehicle: saline with Tween-80",93 % of control
same,T/C,"dose: 400.0 mg/kg/injection, schedule: Q04DX002 (ip), vehicle: saline with Tween-80",101 % of control
Cc1ccc(O)c(C(=O)c2ccccc2)c1,T/C,"dose: 50.0 mg/kg/injection, schedule: Q01DX001 (ip), vehicle: carboxymethylcellulose (CMC)",96 % of control
same,T/C,[1],99 % of control
same,T/C,[2],89 % of control
same,T/C,[3],94 % of control
CC(=O)N/N=C/c1ccc([N+](=O)[O-])s1,T/C,[7],94 % of control
O=Cc1[nH]c(=S)[nH]c(=O)c1Cc1cccc2ccccc12,T/C,[6],97 % of control
same,T/C,"dose: 200.0 mg/kg/injection, schedule: Q01DX009 (ip), vehicle: saline with Tween-80",101 % of control
COc1cc(C(=O)NOCc2cccc(C(F)(F)F)c2)cc(OC)c1OC,T/C,[7],98 % of control
same,T/C,"dose: 200.0 mg/kg/injection, schedule: Q04DX003 (ip), vehicle: saline with Tween-80",98 % of control
same,T/C,"dose: 400.0 mg/kg/injection, schedule: Q04DX003 (ip), vehicle: saline with Tween-80",101 % of control
